Measurements as given in publication PMC8545225 (Nanoscale, 2021).

Experiment: 2D DOSY NMR diffusion measurement and hydrodynamic size
Format: physicochemical
Conditions: DOSY NMR in D2O, free ligands at 289.75 K

O=C(O)c1ccc(P(c2ccccc2)c2ccccc2)cc1 [DPPBA, 4-(diphenylphosphino)benzoic acid]
Diffusion coefficient ds: 1.37 × 10^−9 m^2·s^−1

O=S(=O)([O-])c1cccc(P(c2ccccc2)c2ccccc2)c1.[Na+] [TPPMS, triphenylphosphine monosulfonate]
Diffusion coefficient ds: 2.42 × 10^−10 m^2·s^−1
